These results are taken from patent US11078228B2, “Ectonucleotidase inhibitors and methods of use thereof” (Calithera Biosciences, Inc., priority 2018, dated 2021).

recombinant CD73, sequence (P21589 27-547): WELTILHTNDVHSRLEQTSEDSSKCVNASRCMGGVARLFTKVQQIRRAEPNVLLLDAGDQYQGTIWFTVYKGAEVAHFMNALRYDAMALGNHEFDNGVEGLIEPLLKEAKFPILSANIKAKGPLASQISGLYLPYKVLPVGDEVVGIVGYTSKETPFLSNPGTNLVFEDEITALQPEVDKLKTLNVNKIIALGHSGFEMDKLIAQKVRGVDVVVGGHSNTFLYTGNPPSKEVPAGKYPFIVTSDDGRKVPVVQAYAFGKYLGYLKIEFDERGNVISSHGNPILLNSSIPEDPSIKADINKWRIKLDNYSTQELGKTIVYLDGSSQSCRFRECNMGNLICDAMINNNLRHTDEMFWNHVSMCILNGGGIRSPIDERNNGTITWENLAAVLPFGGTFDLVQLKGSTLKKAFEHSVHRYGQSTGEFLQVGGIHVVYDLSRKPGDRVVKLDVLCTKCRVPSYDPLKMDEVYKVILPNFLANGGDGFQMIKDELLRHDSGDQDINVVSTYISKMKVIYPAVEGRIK

The target of the assay is recombinant CD73 (Homo sapiens (Human), UniProt P21589). In words: Assay 1: Inhibition of the CD73 enzyme in vitro (0.5 nM CD73, 30 min room temperature, Malachite Green). In kind it is biochemical. The settings on record: 0.5 nM CD73, 30 minutes at room temperature. The procedure:
For measurements of soluble CD73 enzyme activity, recombinant CD73 was obtained from R&D Systems, Cat. No. 5795-EN-010. […] Reactions were allowed to proceed for 30 minutes at room temperature before the addition of 100 μL Malachite Green (Cell Signaling Technology, Cat. No. 12776). After 5 minutes at room temperature, absorbance at 630 nm was determined on a microplate spectrophotometer. The concentration of inorganic phosphate was determined using a phosphate standard curve.
What is called IC50 is the concentration that inhibits the measured activity by half. `C#C[C@@]1(O)[C@@H](COC(Cc2ccccc2)(C(=O)O)C(=O)O)O[C@@H](n2cnc3c(NC(C)C)nc(Cl)nc32)[C@@H]1O` [Example 93, 2-benzyl-2-(((2R,3S,4R,5R)-5-(2-chloro-6-(isopropylamino)-9H-purin-9-yl)-3-ethynyl-3,4-dihydroxytetrahydrofuran-2-yl)methoxy)malonic acid]: the IC50 was 1.7 nM.
Consider `C#C[C@@]1(O)[C@@H](COC(Cc2ccccc2)(C(=O)O)C(=O)O)O[C@@H](n2cnc3c(NC4CCCC4)nc(Cl)nc32)[C@@H]1O` [Example 91, 2-benzyl-2-(((2R,3S,4R,5R)-5-(2-chloro-6-(cyclopentylamino)-9H-purin-9-yl)-3-ethynyl-3,4-dihydroxytetrahydrofuran-2-yl)methoxy)malonic acid], for which the IC50 is 0.3 nM.
On to `C#C[C@@]1(O)[C@@H](CO[C@@](Cc2ccccc2)(C(=O)O)c2cscn2)O[C@@H](n2cnc3c(NC)nc(Cl)nc32)[C@@H]1O` [Example 188, (R)-2-(((2R,3S,4R,5R)-5-(2-chloro-6-(methylamino)-9H-purin-9-yl)-3-ethynyl-3,4-dihydroxytetrahydrofuran-2-yl)methoxy)-3-phenyl-2-(thiazol-4-yl)propanoic acid], for which the IC50 was 134 nM.
For the compound `C#C[C@@]1(O)[C@@H](COC(Cc2ccccc2)(C(=O)O)C(=O)O)O[C@@H](n2cnc3c(NCc4ccccc4)nc(Cl)nc32)[C@@H]1O` [Example 59, 2-benzyl-2-(((2R,3S,4R,5R)-5-(6-(benzylamino)-2-chloro-9H-purin-9-yl)-3-ethynyl-3,4-dihydroxytetrahydrofuran-2-yl)methoxy)malonic acid], the IC50 amounted to 1 nM.
Take `C#C[C@@]1(O)[C@@H](COC(Cc2ccccc2)(C(=O)O)C(=O)O)O[C@@H](n2cnc3c(N4CCCC4)nc(Cl)nc32)[C@@H]1O` [Example 90, 2-benzyl-2-(((2R,3S,4R,5R)-5-(2-chloro-6-(pyrrolidin-1-yl)-9H-purin-9-yl)-3-ethynyl-3,4-dihydroxytetrahydrofuran-2-yl)methoxy)malonic acid]: the IC50 came to 0.9 nM.
As for `C#C[C@@]1(O)[C@@H](COC(C(N)=O)C(=O)O)O[C@@H](n2cnc3c(NC4CCCC4)nc(Cl)nc32)[C@@H]1O` (stereo partly drawn) [Example 115, 3-amino-2-(((2R,3S,4R,5R)-5-(2-chloro-6-(cyclopentylamino)-9H-purin-9-yl)-3-ethynyl-3,4-dihydroxytetrahydrofuran-2-yl)methoxy)-3-oxopropanoic acid], the IC50 was found to be 135 nM.
As for `C#C[C@@]1(O)[C@@H](CO[C@@](Cc2ccccc2)(C(=O)O)c2cscn2)O[C@@H](n2cnc3c(N)nc(Cl)nc32)[C@@H]1O` (single isomer, unassigned) [Example 181], the IC50 was 21 nM.
The figure for `Nc1nc(Cl)nc2c1ncn2[C@@H]1O[C@H](COC(C(=O)O)C(=O)O)[C@](O)(C#Cc2ccnn2Cc2ccccc2)[C@H]1O` [Example 29, 2-(((2R,3S,4R,5R)-5-(6-amino-2-chloro-9H-purin-9-yl)-3-((1-benzyl-1H-pyrazol-5-yl)ethynyl)-3,4-dihydroxytetrahydrofuran-2-yl)methoxy)malonic acid] is 2 nM; for `C#C[C@@]1(O)[C@@H](CO[C@@](C#N)(Cc2ccccc2)C(=O)O)O[C@@H](n2cnc3c(N)nc(Cl)nc32)[C@@H]1O` (single isomer, unassigned) [Example 190] it is 9320 nM; for `C#C[C@@]1(O)[C@@H](CO[C@](Cc2ccccc2)(C(=O)O)c2nnn[nH]2)O[C@@H](n2cnc3c(N)nc(Cl)nc32)[C@@H]1O` [Example 191, (S)-2-(((2R,3S,4R,5R)-5-(6-amino-2-chloro-9H-purin-9-yl)-3-ethynyl-3,4-dihydroxytetrahydrofuran-2-yl)methoxy)-3-phenyl-2-(1H-tetrazol-5-yl)propanoic acid] it is 7 nM.
Turning to `C#C[C@@]1(O)[C@@H](COC(Cc2cccc(OC)c2)(C(=O)O)C(=O)O)O[C@@H](n2cnc3c(N)nc(Cl)nc32)[C@@H]1O` [Example 52, 2-(((2R,3S,4R,5R)-5-(6-amino-2-chloro-9H-purin-9-yl)-3-ethynyl-3,4-dihydroxytetrahydrofuran-2-yl)methoxy)-2-(3-methoxybenzyl)malonic acid], the IC50 was 4 nM.
Turning to `C#C[C@@]1(O)[C@@H](COC(Cc2cccc(OC(F)(F)F)c2)(C(=O)O)c2cscn2)O[C@@H](n2cnc3c(N)nc(Cl)nc32)[C@@H]1O` (stereo partly drawn) [Example 183, 2-(((2R,3S,4R,5R)-5-(6-amino-2-chloro-9H-purin-9-yl)-3-ethynyl-3,4-dihydroxytetrahydrofuran-2-yl)methoxy)-2-(thiazol-4-yl)-3-(3-(trifluoromethoxy)phenyl)propanoic acid], the IC50 was determined as 56 nM.
Next, `C#C[C@@]1(O)[C@@H](COC(Cc2cccc(C(F)(F)F)c2)(C(=O)O)C(=O)O)O[C@@H](n2cnc3c(N)nc(Cl)nc32)[C@@H]1O` [Example 50, 2-(((2R,3S,4R,5R)-5-(6-amino-2-chloro-9H-purin-9-yl)-3-ethynyl-3,4-dihydroxytetrahydrofuran-2-yl)methoxy)-2-(3-(trifluoromethyl)benzyl)malonic acid]: 3 nM; `C#C[C@@]1(O)[C@@H](COC(C(=O)O)c2csc(C(=O)O)n2)O[C@@H](n2cnc3c(N)nc(Cl)nc32)[C@@H]1O` (stereo partly drawn) [Example 195, 4-((((2R,3S,4R,5R)-5-(6-amino-2-chloro-9H-purin-9-yl)-3-ethynyl-3,4-dihydroxytetrahydrofuran-2-yl)methoxy)(carboxy)methyl)thiazole-2-carboxylic acid]: 236 nM.
Turning to `C#C[C@@]1(O)[C@@H](CO[C@@H](C(=O)O)c2csc(-c3ccccc3)n2)O[C@@H](n2cnc3c(N)nc(Cl)nc32)[C@@H]1O` (single isomer, unassigned) [Example 194], the IC50 is 336 nM.
Consider `C#C[C@@]1(O)[C@@H](COC(Cc2cccc(Cl)c2)(C(=O)O)C(=O)O)O[C@@H](n2cnc3c(N)nc(Cl)nc32)[C@@H]1O` [Example 51, 2-(((2R,3S,4R,5R)-5-(6-amino-2-chloro-9H-purin-9-yl)-3-ethynyl-3,4-dihydroxytetrahydrofuran-2-yl)methoxy)-2-(3-chlorobenzyl)malonic acid], for which the IC50 was 3 nM.
With `C#C[C@@]1(O)[C@@H](COC(C(=O)OC)P(=O)(O)O)O[C@@H](n2cnc3c(N)nc(Cl)nc32)[C@@H]1O` (stereo partly drawn) [Example 123, (1-(((2R,3S,4R,5R)-5-(6-amino-2-chloro-9H-purin-9-yl)-3-ethynyl-3,4-dihydroxytetrahydrofuran-2-yl)methoxy)-2-methoxy-2-oxoethyl)phosphonic acid], the IC50 was 71 nM.
The figure for `C#C[C@@]1(O)[C@@H](COC(C(=O)O)S(C)(=O)=O)O[C@@H](n2cnc3c(NC4CCCC4)nc(Cl)nc32)[C@@H]1O` (stereo partly drawn) [Example 120, 2-(((2R,3S,4R,5R)-5-(2-chloro-6-(cyclopentylamino)-9H-purin-9-yl)-3-ethynyl-3,4-dihydroxytetrahydrofuran-2-yl)methoxy)-2-(methylsulfonyl)acetic acid] is 4630 nM; for `C[C@@]1(O)[C@@H](CO[C@](Cc2ccc(-c3ccccc3)cc2)(C(=O)O)c2cscn2)O[C@@H](n2cnc3c(N)nc(Cl)nc32)[C@@H]1O` (single isomer, unassigned) [Example 198] it is 2270 nM.
